Laboratory results reported in patent US20240270821A1, “GIP/GLP1/GCG TRI-RECEPTOR AGONISTS AND USES THEREOF” (priority 2023, published 2024).
Starred links: 1 amine or outer side, 2 acyl side, 3 side chain; linkers in the order of their positions; H or OH if unused. Non-standard residues stand in square brackets, D forms with d. Groups on a side chain read outwards from the residue. No end group written: not given here. *: point of attachment. C18 diacid = O=C(O)CCCCCCCCCCCCCCCCC(=O)*; γGlu = O=C(O)[C@H](CCC(=O)[*:2])N[*:1]; αMe4Pal = C[C@](N)(Cc1ccncc1)C(=O)O; 4Pal = N[C@@H](Cc1ccncc1)C(=O)O; αMeL = CC(C)C[C@](C)(N)C(=O)O; Orn = NCCC[C@H](N)C(=O)O; Dab = NCC[C@H](N)C(=O)O; AEEA = NCCOCCOCC(=O)O; Aib = CC(C)(N)C(=O)O

Assays:
hGIPR [1] = molecular target: T1, hGIPR (Homo sapiens, UniProt P48546); assay: Functional cAMP activity in the presence of 1% HSA; type: cell-based; conditions: read-out: cAMP Rel EC50, hGIPR
T1 sequence (P48546 22-466): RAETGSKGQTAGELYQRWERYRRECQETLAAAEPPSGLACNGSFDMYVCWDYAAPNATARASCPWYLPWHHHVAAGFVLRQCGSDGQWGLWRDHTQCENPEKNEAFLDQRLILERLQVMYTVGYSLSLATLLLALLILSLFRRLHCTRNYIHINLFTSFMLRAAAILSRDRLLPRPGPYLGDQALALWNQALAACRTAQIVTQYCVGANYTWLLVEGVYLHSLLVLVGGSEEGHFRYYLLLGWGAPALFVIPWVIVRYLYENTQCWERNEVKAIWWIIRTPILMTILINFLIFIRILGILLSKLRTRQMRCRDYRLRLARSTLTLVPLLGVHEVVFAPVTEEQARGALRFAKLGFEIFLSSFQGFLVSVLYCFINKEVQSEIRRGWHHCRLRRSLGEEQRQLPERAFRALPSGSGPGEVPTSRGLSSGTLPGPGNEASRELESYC

hGLP-1R [2] = molecular target: T2, hGLP-1R (Homo sapiens, UniProt P43220); assay: Functional cAMP activity in the presence of 1% HSA; type: cell-based; conditions: read-out: cAMP Rel EC50, hGLP-1R
human GcgR = human GcgR (Homo sapiens, UniProt P47871); assay: Functional cAMP activity in the presence of 1% HSA; type: cell-based; conditions: read-out: cAMP Rel EC50, hGcgR
hGIPR [3] = molecular target: T1, hGIPR; assay: Functional cAMP activation in the presence of 0.1% casein (no HSA); type: cell-based; conditions: in the presence of 0.1% casein (no HSA); geometric mean; read-out: Relative cAMP EC50, hGIPR;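 on Relative cAMP EC50, hGIPR: intracellular cAMP rise after 30 min at 37 °C read by HTRF against a standard curve, scaled between buffer alone (0%) and top control ligand concentration (100%), four-parameter fit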;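 on Relative cAMP EC50, hGLP-1R: intracellular cAMP rise after 30 min at 37 °C read by HTRF, normalized between buffer only (0%) and maximal control ligand (100%), four-parameter variable-slope fit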;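 on Relative cAMP EC50, hGcgR: intracellular cAMP rise after 30 min at 37 °C, read by HTRF against a cAMP standard curve, scaled from buffer only (0%) to maximal control ligand response (100%)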
hGLP-1R [4] = molecular target: T2, hGLP-1R; assay: as above; type: cell-based; conditions: in the presence of 0.1% casein (no HSA); geometric mean; read-out: Relative cAMP EC50, hGLP-1R
hGcgR = hGcgR (Homo sapiens, UniProt P47871); assay: as above; type: cell-based; conditions: in the presence of 0.1% casein (no HSA); geometric mean; read-out: Relative cAMP EC50, hGcgR;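 further: intracellular cAMP rise after 30 min at 37 °C, read by HTRF against a cAMP standard curve, scaled from buffer only (0%) to maximal control ligand response (100%)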
human GLP1-R = human GLP1-R (Homo sapiens, UniProt P43220); assay: GLP1-R internalization assay in HEK293 cells; type: cell-based; conditions: for EC50: HEK293 cells expressing SNAP-GLP-1R, read-out: GLP1R Internalization EC50; for Internalization % TOP: normalized to maximum concentration of GLP-1 (100%)
[5] = test system: Intestinal organoid from Göttingen minipig jejunum tissue, 2D monolayer; assay: Cell based in vitro permeability (Papp) assay; type: in vitro ADME
Protocol: Intestinal organoid from Göttingen minipig jejunum tissue and its 2D monolayer are generated using the protocol previously described ([…]-Thiele, […].; Wells, J. M., Optimized procedures for generating an enhanced, near physiological 2D culture system from porcine intestinal organoids. […] After 7 days of culture, organoids are dissociated into single cells by TrypLE (GIbco), and the single cell suspension is added in 24-well transparent transwell inserts (0.3 cm^2, Falcon, BD). […] Samples from the basal compartment are collected at 20 min in the presence of C10. Peptide concentrations in the apical and basal compartments are measured by LC/MS, and the apparent permeability coefficient (Papp) is calculated as previously described (Twarog, C.; Liu, K.; O'Brien, P. J.; Dawson, […] head-to-head Caco-2 assay comparison of the mechanisms of action of the intestinal permeation enhancers: SNAC and sodium caprate (C10).

T2 sequence (P43220 24-463): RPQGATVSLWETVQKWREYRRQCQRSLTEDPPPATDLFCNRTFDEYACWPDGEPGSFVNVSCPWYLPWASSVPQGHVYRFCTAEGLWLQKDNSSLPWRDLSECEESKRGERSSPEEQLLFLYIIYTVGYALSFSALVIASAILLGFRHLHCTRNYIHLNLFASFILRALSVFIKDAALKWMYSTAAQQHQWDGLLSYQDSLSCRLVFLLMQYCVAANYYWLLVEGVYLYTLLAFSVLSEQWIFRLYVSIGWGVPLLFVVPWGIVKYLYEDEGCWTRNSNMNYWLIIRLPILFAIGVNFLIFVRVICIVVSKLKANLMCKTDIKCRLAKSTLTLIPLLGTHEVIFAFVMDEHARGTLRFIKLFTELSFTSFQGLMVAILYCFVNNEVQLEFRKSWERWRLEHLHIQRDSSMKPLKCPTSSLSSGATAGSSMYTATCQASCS
Chain of human GLP1-R (P43220 24-463): as above
Chain of human GcgR (P47871 26-477): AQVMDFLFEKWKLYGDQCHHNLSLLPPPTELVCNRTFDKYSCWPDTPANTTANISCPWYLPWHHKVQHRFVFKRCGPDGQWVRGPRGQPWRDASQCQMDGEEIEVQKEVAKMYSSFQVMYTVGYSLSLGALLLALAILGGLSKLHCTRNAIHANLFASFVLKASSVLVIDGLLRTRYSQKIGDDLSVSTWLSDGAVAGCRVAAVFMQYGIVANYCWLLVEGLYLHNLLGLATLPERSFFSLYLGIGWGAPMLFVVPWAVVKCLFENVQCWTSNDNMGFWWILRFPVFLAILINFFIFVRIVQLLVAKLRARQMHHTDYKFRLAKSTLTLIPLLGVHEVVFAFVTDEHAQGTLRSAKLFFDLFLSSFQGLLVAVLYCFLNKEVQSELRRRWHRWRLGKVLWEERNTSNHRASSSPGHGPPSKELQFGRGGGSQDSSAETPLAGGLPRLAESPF
Chain of hGcgR (P47871 26-477): as above

Molecule | EC50 (hGIPR [1]) [nM] | EC50 (hGLP-1R [2]) [nM] | EC50 (human GcgR) [nM] | EC50 (hGIPR [3]) [nM] | EC50 (hGLP-1R [4]) [nM] | EC50 (hGcgR) [nM] | EC50 (human GLP1-R) [nM] | Internalization % TOP (human GLP1-R) [%] | Relative Papp (Compared to internal standard) [5]
H-Y[Aib]QGTFTSDFS[Orn][αMeL]LDKK([AEEA-γGlu-C18 diacid])AQ[Aib]AFIEYLLE[Aib]G[4Pal]SSGAPPPSGS-NH2 [Example 242] | 5.94 | 242 | 484 | 0.0916 | 3.42 | 3.5 | 56 | 38.2 | 0.07
H-Y[Aib]QGTFTSD[4Pal]S[Dab][αMeL]LDKK([AEEA-γGlu-C18 diacid])AQ[Aib]AFIEYLIE[Aib]GESSGAPPPSGS-NH2 [Example 188] | 43.8 | 436 | 2920 | 0.193 | 3.43 | 10.8 | 44.7 | 40.2 | 0.46
H-Y[Aib]QGTFTSD[4Pal]S[Orn][αMeL]LDKK([AEEA-γGlu-C18 diacid])AQ[αMe4Pal]AFIEYLIE[Aib]GESSGAPPPSGS-NH2 [Example 223] | 37.2 | 627 | 373 | 0.215 | 2.83 | 1.57 | 45.8 | 59.3 | 0.29
H-Y[Aib]QGTFTSDFS[Orn][αMeL]LDKK([AEEA-AEEA-γGlu-C18 diacid])AQ[Aib]AFIEWLLEGGHSSGAPPPSGE-NH2 [Example 169] | 21.5 | 216 | 439 | 0.209 | 6.17 | 11.7 | 178 | 49.4 | 0.12
H-Y[Aib]QGTFTSD[4Pal]SQ[αMeL]LDKK([AEEA-γGlu-C18 diacid])AQ[αMe4Pal]AFIEYLIE[Aib]GESSGAPPPSGS-NH2 [Example 226] | 32.2 | 354 | 763 | 0.127 | 1.97 | 3.08 | 29.1 | 59.3 | 0.36
H-Y[Aib]QGTFTSDYSR[αMeL]LDKK([AEEA-γGlu-C18 diacid])AQ[Aib]AFIEYLLEGGESSGAPPPSGS-NH2 [Example 361] | 46.3 | 376 | 987 | 0.214 | 2.08 | 2.73 | 50.4 | 73 | 0.10
H-Y[Aib]QGTFTSDFS[Orn][αMeL]LDKK([AEEA-γGlu-C18 diacid])AQ[Aib]AFIEYLLE[Aib]GHSSGAPPPSGS-NH2 [Example 241] | 9.36 | 264 | 543 | 0.0748 | 2.3 | 2.71 | 64.4 | 37.6 | 0.10
Y[Aib]QGTFTSDFS[Orn][αMeL]LDKK([AEEA-AEEA-γGlu-C18 diacid])AQ[Aib]AFIEYLLE[dA]GPSSGHPPPSGH-NH2 [Example 255] | 21.9 | 272 | 883 | 0.107 | 1.9 | 5.48 | 47.1 | 51.8 | 0.23
H-Y[Aib]QGTFTSDFS[Orn][αMeL]LDKK([AEEA-AEEA-γGlu-C18 diacid])AQ[Aib]AFIEYLLE[Aib]G[4Pal]SSGAPPPSGE-NH2 [Example 189] | 22.2 | 423 | 853 | 0.0695 | 4.46 | 6.28 | 103 | 45.8 | 0.17
H-Y[Aib]QGTFTSDFS[Orn][αMeL]LDKK([AEEA-AEEA-γGlu-C18 diacid])AQ[Aib]AFIEYLLE[Aib]GPSSGAPPPSGT-NH2 [Example 165] | 18.6 | 808 | 1250 | 0.0956 | 6.52 | 4.47 | 57.5 | 44.5 | 0.09
H-Y[Aib]QGTFTSD[4Pal]SR[αMeL]LDKK([AEEA-γGlu-C18 diacid])AQ[αMe4Pal]AFIEYLIE[Aib]GESSGAPPPSGS-NH2 [Example 224] | 21.5 | 333 | 452 | 0.114 | 1.89 | 1.91 | 32.2 | 61.9 | 0.35
H-Y[Aib]QGTFTSDFS[Orn][αMeL]LDKK([AEEA-γGlu-C18 diacid])AQ[Aib]AFIEWLLEGGSSSGAPPPSGT-NH2 [Example 174] | 20.8 | 208 | 307 | 0.198 | 2.33 | 4.24 | 123 | 52.8 | 0.12
CC[C@H](C)[C@H](NC(=O)[C@H](Cc1ccccc1)NC(=O)[C@H](C)NC(=O)C(C)(C)NC(=O)[C@H](CCC(N)=O)NC(=O)[C@H](C)NC(=O)[C@H](CCCCNC(=O)CC[C@H](NC(=O)CC[C@H](NC(=O)CCCCCCCCCCCCCCCCC(=O)O)C(=O)O)C(=O)O)NC(=O)[C@H](CCCCN)NC(=O)[C@H](CC(=O)O)NC(=O)[C@H](CC(C)C)NC(=O)[C@](C)(CC(C)C)NC(=O)[C@H](CCCN)NC(=O)[C@H](CO)NC(=O)[C@H](Cc1ccccc1)NC(=O)[C@H](CC(=O)O)NC(=O)[C@H](CO)NC(=O)[C@@H](NC(=O)[C@H](Cc1ccccc1)NC(=O)[C@@H](NC(=O)CNC(=O)[C@H](CCC(N)=O)NC(=O)C(C)(C)NC(=O)[C@@H](N)Cc1ccc(O)cc1)[C@@H](C)O)[C@@H](C)O)C(=O)N[C@@H](CCC(=O)O)C(=O)N[C@@H](Cc1ccc(O)cc1)C(=O)N[C@@H](CC(C)C)C(=O)N[C@@H](CC(C)C)C(=O)N[C@@H](CCC(=O)O)C(=O)N[C@H](C)C(=O)NCC(=O)N1CCC[C@H]1C(=O)N[C@@H](CO)C(=O)N[C@@H](CO)C(=O)NCC(=O)N[C@@H](C)C(=O)N1CCC[C@H]1C(=O)N1CCC[C@H]1C(=O)N1CCC[C@H]1C(=O)N[C@@H](CO)C(=O)NCC(=O)N[C@H](C(N)=O)[C@@H](C)O [Example 204] | 16.7 | 306 | 572 | 0.181 | 2.34 | 6.92 | 66.4 | 45.5 | 0.16
H-Y[Aib]QGTFTSD[4Pal]SQ[αMeL]LDKK([AEEA-γGlu-C18 diacid])AQ[αMe4Pal]AFIEYLIE[Aib]GESSGAPPPSGE-NH2 [Example 227] | 39.7 | 418 | 937 | 0.17 | 2.34 | 4.22 | 114 | 59.4 | 0.42
H-Y[Aib]QGTFTSDFS[Orn][αMeL]LDKK([AEEA-AEEA-γGlu-C18 diacid])AQ[Aib]AFIEYLLE[Aib]GHSSGAPPPSGE-NH2 [Example 186] | 18 | 690 | 1280 | 0.107 | 5.26 | 4.67 | 124 | 41.1 | 0.10
H-Y[Aib]QGTFTSDFS[Orn][αMeL]LDKK([AEEA-γGlu-C18 diacid])AQ[Aib]AFIEYLLE[dA]GPSS[Aib]APPPSGT-NH2 [Example 214] | 15.1 | 186 | 302 | 0.103 | 1.22 | 2.49 | 50.1 | 41.7 | 0.07
